This note sets out measurements from PMC11288129, “Diversely evolved xibalbin variants from remipede venom inhibit potassium channels and activate PKA-II and Erk1/2 signaling” (BMC Biology, 2024).

In one assay the test system is hCav3.1. The assay is described as follows: TEVC inhibition, Cav3.1. Format: cell-based, human. Also on record: unit not given here. The settings on record: 1 µM. An excerpt:
For the expression of Kv channels rat Kv1.1 (GenBank accession number: NM_173095 [88, 89]), rKv1.2 (NM_012970 [90, 91]), human Kv1.3 (NM_002232 [92, 93]), rKv1.4 (NM_012971 [94, 95]), rKv1.6 (NM_023954 [96, 97]), hKv2.1 (NM_004975 [98, 99]), hKv3.1 (NM_004976 [100, 101]), rKv4.2 (NM_031739 [102, 103]), hKv10.1 (NM_172362 [104, 105]), hERG1 [Kv11.1, (NM_000238 [106, 107])], and Shaker IR [from Drosophila melanogaster, (NM_167595 [108, 109])], Nav channels [rNav1.2 (NM_012647 [42, 110]), rNav1.4 (NM_013178 [111, 112]), hNav1.5 (NM_198056 [113, 114]), mNav1.6 (NM_001077499 [115, 116]), BgNav [from Blattella germanica, (DQ466887 [117, 118])] and the auxiliary subunits rβ1 (NM_001271045 [119, 120]), hβ1 (NM_001037 [121, 122]), and TipE [from D. melanogaster, (NM_079196 [109, 123])], and Cav channels hCav3.1 [124, 125], hCav3.2 [126, 127], and hCav3.3 [128, 129] in Xenopus oocytes, the linearized plasmids were transcribed using the T7 or SP6 mMESSAGEmMACHINE transcription kit (Ambion, Austin, TX, USA). Mature female animals were purchased from Nasco (Fort Atkinson, USA) and were housed in the Aquatic Facility (KU Leuven) in compliance with the regulations of the European Union (EU) concerning the welfare of laboratory animals as declared in Directive 2010/63/EU. The use of X. laevis oocytes was approved by the Animal Ethics Committee of the KU Leuven with the license number P186/2019. Stage V–VI oocytes were collected from anesthetized female X. laevis frog as previously described, with the frogs anesthetized by placement in 0.1% tricaine solution (amino benzoic acid ethyl ester; Merck, USA). Oocyte microinjection was performed using a microinjector (Drummond Scientifc®, USA), with a programmed cRNA injection volume of 4—50 nL, depending on the channel subtype. The oocytes were incubated in ND96 solution (96 mM NaCl, 2 mM KCl, 1.8 mM CaCl2, 2 mM MgCl2, and 5 mM HEPES, pH 7.4), supplemented with 50 mg/l gentamicin sulfate.
Electrophysiological measurements were performed at room temperature (18–22 °C) using the two-electrode voltage clamp (TEVC) technique. Data were obtained using a GeneClamp 500 amplifier (Axon Instruments, USA), and Clampex9 software (Axon Instruments), responsible for data acquisition and storage. Glass micropipettes were produced using glass capillaries (borosilicate WPI 1B120-6) and drawn in a WPI (World Precision Instruments, USA) manual stretcher. The bath and perfusion solutions were either the previously described ND96 (Nav and Kv channels) or calcium-free ND96 supplemented with 10 mM BaCl2 (Cav channels).
Whole-cell currents of oocytes were recorded 1 to 3 days after injection. Current and voltage electrodes were filled with 3 M KCl and their resistance was adjusted from 0.7 to 2.0 MΩ. Currents were sampled at 20 kHz (Nav channels) and 10 kHz (Kv and Cav channels) and filtered using a four-pole Bessel low-pass Bessel filter, at 1 kHz for sodium, and […] for potassium and calcium, except for the hERG ion channel, in which the currents were filtered at 1 kHz. Leak subtraction was performed using a -P/4 protocol. Kv1.x currents were evoked by 500 ms depolarizations to 0 mV followed by a 500-ms pulse to − 50 mV, from a holding potential of − 90 mV. Kv2.1, Kv3.1, and Kv4.2 currents were elicited by 500 ms pulses to + 20 mV from a holding potential of − 90 mV. Current traces of Kv10.1 were elicited by 2 s depolarization to 0 mV, from a holding potential of − 90 mV. Current traces of hERG1 channel were elicited by applying a + 40 mV prepulse for 2 s followed by a step of − 120 mV for 2 s. Sodium current traces were evoked by a 100 ms depolarization to 0 mV, from a holding potential of − 90 mV. The current–voltage (IV) relationships were determined by 100-ms step depolarizations between − 90 and + 40 mV, using 5 mV increments. […]

In assay [1] the test system is voltage-gated potassium channels (Kvs). The assay is described as follows: TEVC on panel of voltage-gated potassium channels. Format: cell-based. The settings on record: 1 µM. The text has this:
For the expression of Kv channels rat Kv1.1 (GenBank accession number: NM_173095 [88, 89]), rKv1.2 (NM_012970 [90, 91]), human Kv1.3 (NM_002232 [92, 93]), rKv1.4 (NM_012971 [94, 95]), rKv1.6 (NM_023954 [96, 97]), hKv2.1 (NM_004975 [98, 99]), hKv3.1 (NM_004976 [100, 101]), rKv4.2 (NM_031739 [102, 103]), hKv10.1 (NM_172362 [104, 105]), hERG1 [Kv11.1, (NM_000238 [106, 107])], and Shaker IR [from Drosophila melanogaster, (NM_167595 [108, 109])], Nav channels [rNav1.2 (NM_012647 [42, 110]), rNav1.4 (NM_013178 [111, 112]), hNav1.5 (NM_198056 [113, 114]), mNav1.6 (NM_001077499 [115, 116]), BgNav [from Blattella germanica, (DQ466887 [117, 118])] and the auxiliary subunits rβ1 (NM_001271045 [119, 120]), hβ1 (NM_001037 [121, 122]), and TipE [from D. melanogaster, (NM_079196 [109, 123])], and Cav channels hCav3.1 [124, 125], hCav3.2 [126, 127], and hCav3.3 [128, 129] in Xenopus oocytes, the linearized plasmids were transcribed using the T7 or SP6 mMESSAGEmMACHINE transcription kit (Ambion, Austin, TX, USA). […]
Whole-cell currents of oocytes were recorded 1 to 3 days after injection. […] The current–voltage (IV) relationships were determined by 100-ms step depolarizations between − 90 and + 40 mV, using 5 mV increments. […]

Entries after “also recorded” stand apart in the source; their conditions may differ. Positions of bridges follow the written chain, without caps; N, C: chain ends. No end group written: not given here.

As for “KRSCIRRFGRCDHRPNDCCYNSSCRCNLWGSNCRCQRMGLFQKWGK (disulfide 4-19, 11-24, 18-35, 26-33) [xib13]”, the “Inhibition data, Cav3.1” value in the assay with hCav3.1 (replicate 1), in the assay with hCav3.1 (replicate 2), in the assay with hCav3.1 (replicate 3) and with hCav3.1 (replicate 4) was 0.0 each time. For the same sequence, the “inhibition of voltage-gated potassium channels” value in assay [1] is on record as “potent inhibition; also recorded: most significant inhibition rates”.
On to “RLFCIRHHKYCGHRPKRCCSGLFCRCNTFGTNCRCQSKGALGKLI (disulfide 4-19, 11-24, 18-35, 26-33) [xib1]”, for which the “Inhibition data, Cav3.1” value in the assay on hCav3.1 (replicate 1), with hCav3.1 (replicate 2), with hCav3.1 (replicate 3) and in the assay with hCav3.1 (replicate 4) was 0.0 each time. Moreover, the “inhibition of voltage-gated potassium channels” value in assay [1] is “potent inhibition”.
